Data from US10500169B2, “Supression of IgE production by compounds derived from traditional chinese medicine” (Sean N. Parker Foundation, priority 2014, dated 2019).

How the values were obtained:
[1] = In vivo pharmacokinetics study of berberine bioavailability, serum LC-MS; conditions: C3H/HeJ, mouse, oral berberine 2 mg, with or without Angelica sinensis 10 mg, 1 hr after administration, read-out: Concentration of berberine in serum from mice
Procedure: C3H/Hej mice were purchased from Jackson laboratory (Bar Harbor, Me.) and maintained in the animal facility at Mount Sinai School of Medicine^(39). Standard guidelines for the care and use of animals were followed (Institute of Laboratory Animal Resources Commission of Life Sciences, 1996). In order to study the bioavailability, C3H/Hej mice were randomly separated into two groups. Mice were fasted for 12 h before the oral administration of berberine (2 mg) or berberine (2 mg)+Angelica sinensis (10 mg). Blood samples (100 μl) were collected from the facial vein at 1 hr after the administration. The serum of each blood sample was prepared and stored at −80° C. for further analysis. For in vivo study of berberine bioavailability, 50 μL of each serum sample was mixed with 400 μL of acetonitrile and vortexed thoroughly. The mixture was then centrifuged at 1000 rpm for 15 mins. The supernatant was dried under vacuum and resuspended into 50 μL of acetonitrile. All samples were analyzed using waters LC-MS system (Waters corp. MA) for berberine detection. Molecular weight was identified by LC-MS/TOF analysis in elctrospray (ESI) positive mode. The LCT premier TOF mass spectrometer (Waters Corporation, Milford, Mass.) was coupled to Waters Alliance 2695 HPLC system. […]. The mass range was from m/z 50 to 1000 in W optics mode. […]

[2] = system: human PBMCs; test: Cell viability of human PBMC, trypan blue exclusion; assay type: cell-based; conditions: any dose tested
Procedure: Cell viability was evaluated using a trypan blue exclusion as previously described. Briefly, a 10 μl of cells suspension from each culture was mixed with equal volume of trypan blue dye. The mixture was loaded into a hemocytometer and cells were counted under a microscope. The percentage of viable cells was calculated as follows: Viable cells (%)=(total number of viable cells)/(total number of cells)×100.

[3] = system: GATA-3; test: RT-PCR gene expression in stimulated PBMCs: GATA-3; assay type: cell-based, human; conditions: 10 μg/mL
Procedure: (§1) Quantitative real time PCR was used to detect the epsilon germline transcription. Human PBMC cells (1.5×10^6 cells/mL) were co-incubated with DMF-C1 compound (10 μg/mL) at 37° C. under 5% CO2 for 4 days. Cells were then harvested and total RNA was isolated using Trizol reagent (Gibco BRL, Rockville, Md.) following the manufacturer's instructions. The RNA concentrations were then quantified by triplicate optical density (OD) readings (Bio-Rad SmartSpect 3000; Bio-Rad, Hercules, Calif.). The reverse transcription was performed to get the cDNA using ImProm-II™ Reverse Transcriptase (Promega Corporation, Madison, Wis.) as described by the manufacturer's instructions. The RT-PCR amplification was performed using Maxima™ SYBR Green qPCR Master Mix (2×) kit (Fisher Scientific, Pittsburgh, Pa.) with epsilon germline primers or GAPDH primers. The primer sequences were listed as εGLT forward: 5′-[…]-3′; εGLT reverse: 5′-[…]-3′; GAPDH-forward: 5′-[…]-3′; GAPDH-reverse: 5′-[…]-3′; STAT3-forward: 5′-[…]-3′; STAT3-reverse: 5′-[…]-3′; T-bet-forward: 5′-[…]-3′; T-bet-reverse: 5′-[…]-3′; IFN-γ-forward: 5′-[…]-3′; IFN-γ-reverse: 5′-[…]-3′; IL-10-forward: 5′-[…]-3′; IL-10-reverse: 5′-[…]-3′. IL-5-forward. 5′-[…] TGCA-3′; IL-5-reverse: 5′-[…]-3′. All primers were synthesized by Sigma-Aldrich Corporation (St. Louis, Mo.).

[4] = system: phosphorylated-IκBα; test: In-Cell Western of phosphorylated IκBα in PBMCs; assay type: cell-based, human; conditions: 10 μg/mL, vs non-treated stimulated cells
Procedure: PBMCs (1×10^5 cells/mL) were cultured with or without DMF-C1 (10 μg/mL) and stimulated with or without rIL-4 (100 ng/mL) and anti-CD40 (1 μg/mL) mAb for 10 days. In-Cell Western Assay (Li-Cor, Lincoln, Nebr.) was performed following the manufacturer's instructions. In brief, cells were incubated with antibodies against phosphorylated-IκBα (p-IκBα; Cell Signaling) and β-actin (Santa Cruz Biotechnology) overnight. After washing with 0.1% Tween PBS buffer, secondary antibodies IRDye800CW donkey anti-goat and IRDye680 donkey anti-rabbit (LI-Cor) were added and incubated at room temperature for 1 hour in the dark. Plates were scanned and analyzed with Odyssey CLx Infrared Imaging System.

[5] = system: STAT3; test: RT-PCR gene expression in stimulated PBMCs: STAT3; assay type: cell-based, human; conditions: 10 μg/mL
Procedure: as §1

[6] = system: human PBMCs; test: IgE production by PBMCs from food allergic patients stimulated with rIL-4 and anti-CD40 mAb, ELISA; assay type: cell-based; conditions: 10 days
Procedure: PBMCs were isolated by Ficoll Hypaque (Pharmacia, Piscataway, N.J.) using density gradient centrifugation at 1800 RPM for 30 minutes, and washed 3 times in PBS. To determine the optimal stimulation of IgE production by PBMCs, PBMCs at 1.5×10^6 cells/mL were suspended in complete RPMI medium (200 μM L-glutamine, 1% penicillin/streptomycin, 25 mM HEPES, 10% heat inactivated fetal calf serum), and co-stimulated with human recombinant IL-4 (rIL-4) at 0.01 and 0.1 μg/mL (R&D Systems, Minneapolis, Minn., USA) and anti-CD40 monoclonal antibody (mAb) at […] (R&D) for 10 and 14 days. At the end of incubation, the supernatants were collected and IgE levels were analyzed using ELISA kit (Mabtech Inc, OH). Since PBMCs stimulated with 100 ng/mL rIL-4 and 1 μg/mL anti-CD40 mAb produced the highest level of IgE, we used this culture condition for the subsequent studies. PBMCs were stimulated with 100 ng/mL rIL-4 and 1 μg/mL anti-CD40 mAb and cultured in the presence or absence of 20 μg/mL of the two purified compounds for 10 days for screening active compounds, and at different concentrations (0.15, 0.31, 0.62, 1.25, 2.5, 5, 10 μg/mL) to examine dose responses for the effective compounds. IgE level was evaluated using ELISA. The percentage of IgE inhibition was calculated as follows: […]. In some cases if enough PBMCs were obtained, aliquots of PBMCs prepared from the same individuals were used for different experiments.

COc1ccc2cc3[n+](cc2c1OC)CCc1cc2c(cc1-3)OCO2 [berberine]
concentration at 1 h [1]: 280 ng/mL | cell viability of human PBMC [2]: not compromised | GATA-3 expression [3]: No significant change | phosphorylated IκBα levels [4]: significantly suppressed | mRNA expression of STAT-3 [5]: significantly increased | inhibition of IgE production by human PBMCs ([6]; 20 μg/mL, rIL-4 100 ng/mL + anti-CD40 mAb 1 μg/mL): completely inhibited | inhibition at 0.62 µg/mL ([6]; Homo sapiens, PBMC, 240 h, 0.62 μg/mL, read-out: inhibition percentage of IgE production by PBMCs): 80.7 ± 9.24% | IC50 ([6]; Homo sapiens, PBMC, 240 h, rIL-4 + anti-CD40 mAb, read-out: IC50 of inhibition of IgE production by PBMCs): 0.2 µg/mL
